Measured values taken from patent publication US20040063662A1, “Selenophene anti-tumor agents” (priority 1996, published 2004).

Legend:
MDA-MB-435 = assay: NCI human tumor cell panel: MDA-MB-435 (Breast Cancer); format: cell-based; settings: MDA-MB-435, Breast Cancer
DU-145 = assay: NCI human tumor cell panel: DU-145 (Prostate Cancer); format: cell-based; settings: DU-145, Prostate Cancer
SF-268 = assay: NCI human tumor cell panel: SF-268 (CNS Cancer); format: cell-based; settings: SF-268, CNS Cancer
SK-MEL-5 = assay: NCI human tumor cell panel: SK-MEL-5 (Melanoma); format: cell-based; settings: SK-MEL-5, Melanoma
NCI-H322M = assay: cells; format: cell-based; settings: Homo sapiens, Non-Small Cell Lung Cancer
SNB-19 = assay: NCI human tumor cell panel: SNB-19 (CNS Cancer); format: cell-based; settings: SNB-19, CNS Cancer
SK-MEL-2 = assay: NCI human tumor cell panel: SK-MEL-2 (Melanoma); format: cell-based; settings: SK-MEL-2, Melanoma
[1] = system: panel of sixty different human tumor cell lines; assay: NCI human tumor cell panel: whole panel (mean graph summary)
SF-539 = assay: NCI human tumor cell panel: SF-539 (CNS Cancer); format: cell-based; settings: SF-539, CNS Cancer
SK-MEL-28 = assay: NCI human tumor cell panel: SK-MEL-28 (Melanoma); format: cell-based; settings: SK-MEL-28, Melanoma
HCC-2998 = assay: NCI human tumor cell panel: HCC-2998 (Colon Cancer); format: cell-based; settings: HCC-2998, Colon Cancer
NCI-H522 = assay: NCI human tumor cell panel: NCI-H522 (Non-Small Cell Lung Cancer)
T-47D = assay: NCI human tumor cell panel: T-47D (Breast Cancer); format: cell-based; settings: T47D, Breast Cancer
U251 = assay: NCI human tumor cell panel: U251 (CNS Cancer); format: cell-based; settings: U-251, U251, CNS Cancer
M14 = assay: NCI human tumor cell panel: M14 (Melanoma); format: cell-based; settings: M14, Melanoma
CCRF-CEM = assay: NCI human tumor cell panel: CCRF-CEM (Leukemia); format: cell-based; settings: Leukemia
RPMI-8226 = assay: NCI human tumor cell panel: RPMI-8226 (Leukemia); format: cell-based; settings: RPMI-8226, Leukemia
NCI-H226 = assay: NCI human tumor cell panel: NCI-H226 (Non-Small Cell Lung Cancer); format: cell-based; settings: NCI-H226, Non-Small Cell Lung Cancer
MDA-N = assay: NCI human tumor cell panel: MDA-N (Breast Cancer); format: cell-based; settings: Breast Cancer
COLO 205 = assay: NCI human tumor cell panel: COLO 205 (Colon Cancer); format: cell-based; settings: COLO 205, Colon Cancer
RXF-393 = assay: NCI human tumor cell panel: RXF-393 (Renal Cancer); format: cell-based; settings: RXF-393, Renal Cancer
HL-60(TB) = assay: NCI human tumor cell panel: HL-60(TB) (Leukemia); format: cell-based; settings: Leukemia, read-out: Log10 GI50 (converted)
OVCAR-3 = assay: NCI human tumor cell panel: OVCAR-3 (Ovarian Cancer); format: cell-based; settings: OVCAR-3, Ovarian Cancer
UO-31 = assay: NCI human tumor cell panel: UO-31 (Renal Cancer); format: cell-based; settings: UO-31, Renal Cancer
MCF7 = assay: NCI human tumor cell panel: MCF7 (Breast Cancer); format: cell-based; settings: MCF7, Breast Cancer
CAKI-1 = assay: NCI human tumor cell panel: CAKI-1 (Renal Cancer); format: cell-based; settings: CAKI-1, Renal Cancer
[2] = read-out: Log10 GI50 (converted)
[3] = read-out: Log10 TGI (converted)

## O=Cc1ccc(-c2ccc(-c3ccc[se]3)[se]2)[se]1 [NSC 675244]
MDA-MB-435; [2]
  GI50: 10.2 µM
MDA-MB-435; [3]
  IC (TGI): 33.1 µM
DU-145; [2]
  GI50: 12.6 µM
DU-145; [3]
  IC (TGI): 25.1 µM
SF-268; [2]
  GI50: 4.47 µM
SF-268; [3]
  IC (TGI): 57.5 µM
SK-MEL-5; [2]
  GI50: 3.39 µM
SK-MEL-5; [3]
  IC (TGI): 13.8 µM
NCI-H322M; [2]
  GI50: 13.2 µM
NCI-H322M; [3]
  IC (TGI): 28.2 µM
SNB-19; [2]
  GI50: 10.2 µM
SNB-19; [3]
  IC (TGI): 30.2 µM
SK-MEL-2; [2]
  GI50: 16.6 µM
SK-MEL-2; [3]
  IC (TGI): 45.7 µM
[1]; Homo sapiens, read-out: Log10 GI50, cell line not given (converted)
  GI50: 3.8 µM
[1]; Homo sapiens, read-out: Log10 LC50, cell line not given (converted)
  CC50: > 100 µM
[1]; cell line not given
  Log10 GI50: −5.39
  Log10 TGI: −4.45
SF-539; [2]
  GI50: 17 µM
SF-539; [3]
  IC (TGI): 33.1 µM
SK-MEL-28; [2]
  GI50: 13.2 µM
SK-MEL-28; [3]
  IC (TGI): 26.9 µM
HCC-2998; [2]
  GI50: 2.51 µM
HCC-2998; [3]
  IC (TGI): 11.5 µM
NCI-H522; NCI-H522, read-out: Log10 GI50 (converted)
  GI50: 5.25 µM
NCI-H522; NCI-H522, read-out: Log10 TGI
  IC (TGI): 17.4 µM
T-47D; [2]
  GI50: 11.2 µM
T-47D; [3]
  IC (TGI): 23.4 µM
U251; [2]
  GI50: 0.316 µM
U251; [3]
  IC (TGI): 13.8 µM
M14; [2]
  GI50: 11.5 µM
M14; [3]
  IC (TGI): 28.8 µM
CCRF-CEM; [2]
  GI50: 2.14 µM
CCRF-CEM; [3]
  IC (TGI): 7.08 µM
RPMI-8226; [2]
  GI50: 2.95 µM
RPMI-8226; read-out: Log10 TGI
  IC (TGI): > 100 µM
NCI-H226; [2]
  GI50: 2.24 µM
NCI-H226; [3]
  IC (TGI): 5.13 µM
MDA-N; [2]
  GI50: 4.57 µM
MDA-N; [3]
  IC (TGI): 19.5 µM
COLO 205; [2]
  GI50: 3.16 µM
COLO 205; [3]
  IC (TGI): 12 µM
RXF-393; [2]
  GI50: 1.95 µM
RXF-393; [3]
  IC (TGI): 8.13 µM
HL-60(TB)
  GI50: 2.45 µM
OVCAR-3; [2]
  GI50: 0.282 µM
OVCAR-3; [3]
  IC (TGI): 7.94 µM
UO-31; [2]
  GI50: 15.5 µM
UO-31; [3]
  IC (TGI): 28.8 µM
MCF7; [2]
  GI50: 0.479 µM
MCF7; [3]
  IC (TGI): 11.5 µM
CAKI-1; [2]
  GI50: 0.204 µM
CAKI-1; [3]
  IC (TGI): 0.708 µM
